1 substance from patent publication US10285943B2, “Aptamer bioconjugate drug delivery device” (GreenMark Biomedical Inc., priority 2010, dated 2019) can be followed below.

For this series, the system named is D 245 glioblastoma multiform human xenograph. The series can be described thus: In vivo studies of human xenographs implanted in athymic mice. The settings on record: Free Dox control. As to the method:
Athymic mice were chosen for these studies because normal mice are capable of immunologically rejecting implanted foreign xenographs, specifically human tumors. The animals (both control and treated) were monitored for tumor regression and survival.
The procedure consisted of inoculation of a tumor brei into a subcutaneous site in athymic mice. The subcutaneous tumors were grown to approximately 200 cubic millimeters in size (6-8 mm in diameter). Subsequently, either the free drug or the drug loaded nanoparticles were injected at the tumor site or i.p. (intra peritoneal). […] The animals were treated in groups of 8 to 10 individuals.
Dispersions were 100 mg nanospheres/5 mL saline (1×0.5% Dox-nano), 200 mg nanospheres/5 mL saline (2×0.5% Dox-nano) or 400 mg nanospheres/5 mL saline (4×0.5% Dox-nano).
Injections were each 0.25 mL/20 gram mouse (all single injections).
T-C is defined as: Average of (days lived by drug-treated animal minus days lived by control animals); i.e., increased life span in days.
The Control was provided as follows: Varied—Untreated mice injected with saline; Untreated mice; Mice treated with drug-free nanospheres (100 mgs/5 mL saline).
P value: Test run for significance. P values are calculated using non-parametric statistical method by Hollander and Wolfe.
Regressions: Indicate that tumors drop below previous measurement and stay below for 2 consecutive measurements.

For the substance “(7S,9S)-7-[(2R,4S,5S,6S)-4-amino-5-hydroxy-6-methyloxan-2-yl]oxy-6,9,11-trihydroxy-9-(2-hydroxyethyl)-4-methoxy-8,10-dihydro-7H-tetracene-5,12-dione [Free Dox]”, the Regressions (5 mg/kg, animals with regression/group) is listed as 0/10. For the same substance, the Toxic deaths (5 mg/kg, deaths/group) is on record as 0/10. Also, for the setting “drug dose 5 mg/kg, injected at the tumor site or i.p.”, the “T-C (increased life span in days)” value was found to be 1.53 days.
